{"source": "PubChem BioAssay (NCI)", "experiment_in_all_cases": "NCI tumour cell line growth inhibition, 384-well format", "key": {"A498 renal": {"system": "A498 renal"}, "A549 NSCLC": {"system": "A549 NSCLC"}, "ACHN renal": {"system": "ACHN renal"}, "BT-549 breast": {"system": "BT-549 breast"}, "CAKI-1 renal": {"system": "CAKI-1 renal"}, "CCRF-CEM leukemia": {"system": "CCRF-CEM leukemia"}, "COLO 205 colon": {"system": "COLO 205 colon"}, "DU-145 prostate": {"system": "DU-145 prostate"}, "HCC-2998 colon": {"system": "HCC-2998 colon"}, "HCT-116 colon": {"system": "HCT-116 colon"}, "HCT-15 colon": {"system": "HCT-15 colon"}, "HL-60(TB) leukemia": {"system": "HL-60(TB) leukemia"}, "HOP-62 NSCLC": {"system": "HOP-62 NSCLC"}, "HOP-92 NSCLC": {"system": "HOP-92 NSCLC"}, "HT29 colon": {"system": "HT29 colon"}, "IGROV1 ovarian": {"system": "IGROV1 ovarian"}, "K-562 leukemia": {"system": "K-562 leukemia"}, "KM12 colon": {"system": "KM12 colon"}, "M14 melanoma": {"system": "M14 melanoma"}, "MALME-3M melanoma": {"system": "MALME-3M melanoma"}, "MCF7 breast": {"system": "MCF7 breast"}, "MDA-MB-231 breast": {"system": "MDA-MB-231 breast"}, "MOLT-4 leukemia": {"system": "MOLT-4 leukemia"}, "NCI-H226 lung": {"system": "NCI-H226 lung"}, "NCI-H23 lung": {"system": "NCI-H23 lung"}, "NCI-H322M lung": {"system": "NCI-H322M lung"}, "NCI-H460 NSCLC": {"system": "NCI-H460 NSCLC"}, "NCI-H522 lung": {"system": "NCI-H522 lung"}, "NCI/ADR-RES ovarian": {"system": "NCI/ADR-RES ovarian"}, "OVCAR-3 ovarian": {"system": "OVCAR-3 ovarian"}, "OVCAR-5 ovarian": {"system": "OVCAR-5 ovarian"}, "OVCAR-8 ovarian": {"system": "OVCAR-8 ovarian"}, "PC-3 prostate": {"system": "PC-3 prostate"}, "RPMI-8226 leukemia": {"system": "RPMI-8226 leukemia"}, "RXF 393 renal": {"system": "RXF 393 renal"}, "SF-268 CNS": {"system": "SF-268 CNS"}, "SF-295 CNS": {"system": "SF-295 CNS"}, "SK-MEL-2 melanoma": {"system": "SK-MEL-2 melanoma"}, "SK-OV-3 ovarian": {"system": "SK-OV-3 ovarian"}, "SN12C renal": {"system": "SN12C renal"}, "SNB-19 CNS": {"system": "SNB-19 CNS"}, "SNB-75 CNS": {"system": "SNB-75 CNS"}, "SR leukemia": {"system": "SR leukemia"}, "SW-620 colon": {"system": "SW-620 colon"}, "UACC-257 melanoma": {"system": "UACC-257 melanoma"}, "UACC-62 melanoma": {"system": "UACC-62 melanoma"}, "UO-31 renal": {"system": "UO-31 renal"}}, "note": "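GI50 = concentration required for 50% inhibition of growth. TGI: concentration producing complete growth inhibition.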", "data": [{"smiles": "NC1(c2ccc(-c3nc4ccn5c(=O)[nH]nc5c4cc3-c3ccccc3)cc2)CCC1", "values": [{"measurement": "GI50", "setting": "A498 renal", "result": 134, "unit": "nM"}, {"measurement": "TGI", "setting": "A498 renal", "result": 1190, "unit": "nM"}, {"measurement": "GI50", "setting": "A549 NSCLC", "result": 2050, "unit": "nM"}, {"measurement": "TGI", "setting": "A549 NSCLC", "result": 9340, "unit": "nM"}, {"measurement": "GI50", "setting": "ACHN renal", "result": 1290, "unit": "nM"}, {"measurement": "TGI", "setting": "ACHN renal", "result": 5450, "unit": "nM"}, {"measurement": "GI50", "setting": "BT-549 breast", "result": 875, "unit": "nM"}, {"measurement": "TGI", "setting": "BT-549 breast", "result": 2520, "unit": "nM"}, {"measurement": "GI50", "setting": "CAKI-1 renal", "result": 883, "unit": "nM"}, {"measurement": "TGI", "setting": "CAKI-1 renal", "result": 2600, "unit": "nM"}, {"measurement": "GI50", "setting": "CCRF-CEM leukemia", "result": 127, "unit": "nM"}, {"measurement": "TGI", "setting": "CCRF-CEM leukemia", "result": 1160, "unit": "nM"}, {"measurement": "GI50", "setting": "COLO 205 colon", "result": 712, "unit": "nM"}, {"measurement": "TGI", "setting": "COLO 205 colon", "result": 2650, "unit": "nM"}, {"measurement": "GI50", "setting": "DU-145 prostate", "result": 5780, "unit": "nM"}, {"measurement": "TGI", "setting": "DU-145 prostate", "result": 17400, "unit": "nM"}, {"measurement": "GI50", "setting": "HCC-2998 colon", "result": 1390, "unit": "nM"}, {"measurement": "TGI", "setting": "HCC-2998 colon", "result": 2780, "unit": "nM"}, {"measurement": "GI50", "setting": "HCT-116 colon", "result": 1520, "unit": "nM"}, {"measurement": "TGI", "setting": "HCT-116 colon", "result": 2960, "unit": "nM"}, {"measurement": "GI50", "setting": "HCT-15 colon", "result": 1400, "unit": "nM"}, {"measurement": "TGI", "setting": "HCT-15 colon", "result": 2780, "unit": "nM"}, {"measurement": "GI50", "setting": "HL-60(TB) leukemia", "result": 1920, "unit": "nM"}, {"measurement": "TGI", "setting": "HL-60(TB) leukemia", "result": 3360, "unit": "nM"}, {"measurement": "GI50", "setting": "HOP-62 NSCLC", "result": 2680, "unit": "nM"}, {"measurement": "TGI", "setting": "HOP-62 NSCLC", "result": 7930, "unit": "nM"}, {"measurement": "GI50", "setting": "HOP-92 NSCLC", "result": 1160, "unit": "nM"}, {"measurement": "TGI", "setting": "HOP-92 NSCLC", "result": 2660, "unit": "nM"}, {"measurement": "GI50", "setting": "HT29 colon", "result": 1290, "unit": "nM"}, {"measurement": "TGI", "setting": "HT29 colon", "result": 2690, "unit": "nM"}, {"measurement": "GI50", "setting": "IGROV1 ovarian", "result": 188, "unit": "nM"}, {"measurement": "TGI", "setting": "IGROV1 ovarian", "result": 2390, "unit": "nM"}, {"measurement": "GI50", "setting": "K-562 leukemia", "result": 1590, "unit": "nM"}, {"measurement": "TGI", "setting": "K-562 leukemia", "result": 3030, "unit": "nM"}, {"measurement": "GI50", "setting": "KM12 colon", "result": 2320, "unit": "nM"}, {"measurement": "TGI", "setting": "KM12 colon", "result": 7070, "unit": "nM"}, {"measurement": "GI50", "setting": "M14 melanoma", "result": 1440, "unit": "nM"}, {"measurement": "TGI", "setting": "M14 melanoma", "result": 2770, "unit": "nM"}, {"measurement": "GI50", "setting": "MALME-3M melanoma", "result": 683, "unit": "nM"}, {"measurement": "TGI", "setting": "MALME-3M melanoma", "result": 2210, "unit": "nM"}, {"measurement": "GI50", "setting": "MCF7 breast", "result": 135, "unit": "nM"}, {"measurement": "TGI", "setting": "MCF7 breast", "result": 1720, "unit": "nM"}, {"measurement": "GI50", "setting": "MDA-MB-231 breast", "result": 2490, "unit": "nM"}, {"measurement": "TGI", "setting": "MDA-MB-231 breast", "result": 6520, "unit": "nM"}, {"measurement": "GI50", "setting": "MOLT-4 leukemia", "result": 131, "unit": "nM"}, {"measurement": "TGI", "setting": "MOLT-4 leukemia", "result": 632, "unit": "nM"}, {"measurement": "GI50", "setting": "NCI-H226 lung", "result": 2080, "unit": "nM"}, {"measurement": "TGI", "setting": "NCI-H226 lung", "result": 7360, "unit": "nM"}, {"measurement": "GI50", "setting": "NCI-H23 lung", "result": 2490, "unit": "nM"}, {"measurement": "TGI", "setting": "NCI-H23 lung", "result": 7480, "unit": "nM"}, {"measurement": "GI50", "setting": "NCI-H322M lung", "result": 2440, "unit": "nM"}, {"measurement": "TGI", "setting": "NCI-H322M lung", "result": 10200, "unit": "nM"}, {"measurement": "GI50", "setting": "NCI-H460 NSCLC", "result": 463, "unit": "nM"}, {"measurement": "TGI", "setting": "NCI-H460 NSCLC", "result": 2860, "unit": "nM"}, {"measurement": "GI50", "setting": "NCI-H522 lung", "result": 2390, "unit": "nM"}, {"measurement": "TGI", "setting": "NCI-H522 lung", "result": 6500, "unit": "nM"}, {"measurement": "GI50", "setting": "NCI/ADR-RES ovarian", "result": 3180, "unit": "nM"}, {"measurement": "TGI", "setting": "NCI/ADR-RES ovarian", "result": 12100, "unit": "nM"}, {"measurement": "GI50", "setting": "OVCAR-3 ovarian", "result": 859, "unit": "nM"}, {"measurement": "TGI", "setting": "OVCAR-3 ovarian", "result": 4780, "unit": "nM"}, {"measurement": "GI50", "setting": "OVCAR-5 ovarian", "result": 2130, "unit": "nM"}, {"measurement": "TGI", "setting": "OVCAR-5 ovarian", "result": 7160, "unit": "nM"}, {"measurement": "GI50", "setting": "OVCAR-8 ovarian", "result": 1760, "unit": "nM"}, {"measurement": "TGI", "setting": "OVCAR-8 ovarian", "result": 3960, "unit": "nM"}, {"measurement": "GI50", "setting": "PC-3 prostate", "result": 139, "unit": "nM"}, {"measurement": "TGI", "setting": "PC-3 prostate", "result": 3210, "unit": "nM"}, {"measurement": "GI50", "setting": "RPMI-8226 leukemia", "result": 1480, "unit": "nM"}, {"measurement": "TGI", "setting": "RPMI-8226 leukemia", "result": 3240, "unit": "nM"}, {"measurement": "GI50", "setting": "RXF 393 renal", "result": 863, "unit": "nM"}, {"measurement": "TGI", "setting": "RXF 393 renal", "result": 2230, "unit": "nM"}, {"measurement": "GI50", "setting": "SF-268 CNS", "result": 2730, "unit": "nM"}, {"measurement": "TGI", "setting": "SF-268 CNS", "result": 7370, "unit": "nM"}, {"measurement": "GI50", "setting": "SF-295 CNS", "result": 1340, "unit": "nM"}, {"measurement": "TGI", "setting": "SF-295 CNS", "result": 2720, "unit": "nM"}, {"measurement": "GI50", "setting": "SK-MEL-2 melanoma", "result": 1590, "unit": "nM"}, {"measurement": "TGI", "setting": "SK-MEL-2 melanoma", "result": 2950, "unit": "nM"}, {"measurement": "GI50", "setting": "SK-OV-3 ovarian", "result": 763, "unit": "nM"}, {"measurement": "TGI", "setting": "SK-OV-3 ovarian", "result": 2300, "unit": "nM"}, {"measurement": "GI50", "setting": "SN12C renal", "result": 4040, "unit": "nM"}, {"measurement": "TGI", "setting": "SN12C renal", "result": 16300, "unit": "nM"}, {"measurement": "GI50", "setting": "SNB-19 CNS", "result": 2550, "unit": "nM"}, {"measurement": "TGI", "setting": "SNB-19 CNS", "result": 7450, "unit": "nM"}, {"measurement": "GI50", "setting": "SNB-75 CNS", "result": 239, "unit": "nM"}, {"measurement": "TGI", "setting": "SNB-75 CNS", "result": 1780, "unit": "nM"}, {"measurement": "GI50", "setting": "SR leukemia", "result": 1140, "unit": "nM"}, {"measurement": "TGI", "setting": "SR leukemia", "result": 2360, "unit": "nM"}, {"measurement": "GI50", "setting": "SW-620 colon", "result": 4690, "unit": "nM"}, {"measurement": "TGI", "setting": "SW-620 colon", "result": 8900, "unit": "nM"}, {"measurement": "GI50", "setting": "UACC-257 melanoma", "result": 1540, "unit": "nM"}, {"measurement": "TGI", "setting": "UACC-257 melanoma", "result": 2890, "unit": "nM"}, {"measurement": "GI50", "setting": "UACC-62 melanoma", "result": 1450, "unit": "nM"}, {"measurement": "TGI", "setting": "UACC-62 melanoma", "result": 5450, "unit": "nM"}, {"measurement": "GI50", "setting": "UO-31 renal", "result": 2200, "unit": "nM"}, {"measurement": "TGI", "setting": "UO-31 renal", "result": 6720, "unit": "nM"}]}]}
